In patent US20030166721A1, “Choline derivative for the treatment of alzheimer's disease” (priority 2000, published 2003):

How the values were obtained:
Wistar rats [1] = experiment: EEG spectral qualitative and quantitative analysis in freely moving rats after i.p. administration; assay type: in vivo, rat; conditions: for EEG frequency band 0.25-3 Hz / EEG frequency band 3-6 Hz / EEG frequency band 6-9 Hz / EEG frequency band 9-12 Hz / EEG frequency band 12-16 Hz: after i.p. administration, % ± SEM; for Effect of atropine given 15 min before the compound: atropine pretreatment; for EEG total power (fronto-parietal cortex), Baseline: before i.p. injection (vol. 0.5 ml); for EEG total power (fronto-parietal cortex), Baseline / EEG total power (fronto-parietal cortex), 15′ / EEG total power (fronto-parietal cortex), 30′ / EEG total power (fronto-parietal cortex), 45′ / EEG total power (fronto-parietal cortex), 60′ / EEG total power (fronto-parietal cortex), 75′ / EEG total power (fronto-parietal cortex), 90′: mean ± SEM, 7 tests; for EEG total power (fronto-parietal cortex), 15′ / EEG total power (fronto-parietal cortex), 30′ / EEG total power (fronto-parietal cortex), 45′ / EEG total power (fronto-parietal cortex), 60′ / EEG total power (fronto-parietal cortex), 75′ / EEG total power (fronto-parietal cortex), 90′: i.p. (vol. 0.5 ml)
Description: Young male Wistar rats (200-260) were used in the experiments, housed in a standard temperature and humidity conditions, with food and water ad libitum. […] After surgery all animals were housed 48 h to allow a complete recovery. 48 Hours after electrode implantation, the animals, placed in a transparent box and freely moving, were connected with an electroencephalograph and the electrocortical activity was continuously monitored and recorded. […] Qualitative and quantitative analysis on the electrocortical activity EEG recording was subsequently carried out. The animals were divided in 4 groups, the first group acted as the control, the second received cytidine-5′-diphosphocholine (CDP-choline), the third and fourth received PC-1 and PC-2, respectively (pivaloylcholine iodide and pivaloyleholine trimethylacetate, respectively). The control group received an equal volume of saline solution by the same procedure. […] Statistical analysis was performed by analysis of variance (ANOVA) for multiple measurements followed, if significant, by the post-hoc Tuckey-Kramer test. A comparison between groups was performed to exclude any individual variability.

Wistar rats [2] = experiment: Behavioural and EEG effects in rats at different doses; assay type: in vivo, rat
Description: Young male Wistar rats (200-260) were used in the experiments, housed in a standard temperature and humidity conditions, with food and water ad libitum.
The animals, anaesthetised with chloral hydrate (400 mg/kg) […], were stereotaxically implanted (Kopft Instruments) with cortical electrodes (n=4) onto the fronto-parietal region of the neocortex on both cerebral hemispheres, to record EEG. After surgery all animals were housed 48 h to allow a complete recovery.
48 Hours after electrode implantation, the animals, placed in a transparent box and freely moving, were connected with an electroencephalograph and the electrocortical activity was continuously monitored and recorded. After a 30 min control time, the compounds under test were intraperitoneally administered and EEG recording was continued for 90-120 min
EEG was recorded by computerised 24-channels apparatus (Vega 24, Galileo type, ESA-OTE Biomedica, Florence, Italy), while the spectrum activity was quantitatively analysed by a Berg Fourier analyser (ESA-OTE Biomedica, Florence, Italy). The total EEG power (0.25-16 Hz range) was divided into 5 variable frequency bands: δ 0.25-3 Hz, θ 3-6; α1 6-9; α2 9-12 and β12-16 Hz.
The EEG patterns and behavioral effects observed in the rat after administration of the choline derivatives and of the vehicle is reported in 5 Tab. 3. Such effects can be ascribed to the changes of EEG spectrum total power. An […] in EEG total power is related with the presence of slow frequency waves (synchronisation), whereas an […] thereof is related with the presence of rapid frequency waves (desynchronisation).

[3] = target: T1, Choline Specific Transport System (HUCT) (Rattus norvegicus, UniProt Q9JMD7); experiment: EEG after ICV Hemicholinium-3 (choline uptake blocker) pretreatment; assay type: in vivo; conditions: rats, ICV 1 μg-0.1 ng
T1 construct: from tissue; host or cells: brain of living Wistar rats (in vivo, ICV microinfusion, EEG read-out)
T1 sequence (Q9JMD7 1-580): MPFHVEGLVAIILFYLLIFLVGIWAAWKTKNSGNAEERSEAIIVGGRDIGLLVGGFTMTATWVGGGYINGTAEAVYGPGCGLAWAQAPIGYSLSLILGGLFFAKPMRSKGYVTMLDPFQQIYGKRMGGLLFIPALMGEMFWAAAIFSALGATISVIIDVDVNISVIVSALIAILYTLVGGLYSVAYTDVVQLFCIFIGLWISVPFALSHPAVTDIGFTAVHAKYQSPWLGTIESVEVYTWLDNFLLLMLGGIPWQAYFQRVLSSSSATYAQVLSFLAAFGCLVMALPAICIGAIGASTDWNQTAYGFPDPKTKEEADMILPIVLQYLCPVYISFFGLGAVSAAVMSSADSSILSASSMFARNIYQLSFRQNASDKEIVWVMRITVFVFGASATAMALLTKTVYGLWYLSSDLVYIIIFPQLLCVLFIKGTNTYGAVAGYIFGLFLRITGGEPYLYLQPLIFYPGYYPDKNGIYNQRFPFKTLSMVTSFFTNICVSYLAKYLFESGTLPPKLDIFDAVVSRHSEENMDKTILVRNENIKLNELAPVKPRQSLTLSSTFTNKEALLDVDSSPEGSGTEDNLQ
Description: FIG. 4B—Effect on EEG spectrum power after treatment with PC-1 (5 mg i.p.) administered 15 min after microinfusion of Hch3 (0.1 ng/0.5 μl) in the III ventricule. As in FIG. 4a, time (min) is reported in abscissa, the EEG spectrum power expressed as μV^2/s is reported in ordinate. Graphics report the EEG spectrum total power (0.25-16 Hz).

rats = experiment: Synergistic effect with tacrine: qEEG of neocortical activity in rats; assay type: in vivo, rat; conditions: n=7; for EEG power (qEEG of neocortical activity), 15″ / EEG power (qEEG of neocortical activity), 30″ / EEG power (qEEG of neocortical activity), 45″ / EEG power (qEEG of neocortical activity), 60″ / EEG power (qEEG of neocortical activity), 75″ / EEG power (qEEG of neocortical activity), 90″ / EEG power (qEEG of neocortical activity), 105″ / EEG power (qEEG of neocortical activity), 120″ / EEG power (qEEG of neocortical activity), 135″: rats i.p., PC-1/PC-2 15 μmol/2 ml/kg, THA 5 mg/kg 30 min before, atropine 0.1 mg/kg 15 min before; for EEG power (qEEG of neocortical activity), Baseline: before i.p. treatment
Description: Results reported in Table 5 show the synergistic effect of the combination of tacrine with the choline derivatives of the present invention.
Vehicle: 2 ml/Kg; all drugs were administered i.p., PC-1 and PC-2 at corresponding equimolar doses (15 μmol/2 ml/kg^−1); THA (tacrine) (5 mg/kg) was administered 30 min before compounds; atropine (0.1 mg/kg) was injected 15 min before PC-1 and PC-2. The number of animals was 7 per each group. Values represent EEG power (μV/s).

Molecule | Time to onset of EEG desynchronization and significant decrease in EEG total power (Wistar rats [1]; 5 mg i.p.) [min] | EEG frequency band 0.25-3 Hz (Wistar rats [1]) | EEG frequency band 3-6 Hz (Wistar rats [1]) | EEG frequency band 6-9 Hz (Wistar rats [1]) [%] | EEG frequency band 9-12 Hz (Wistar rats [1]) [%] | EEG frequency band 12-16 Hz (Wistar rats [1]) | Effect of atropine given 15 min before the compound (Wistar rats [1]) | EEG total power (fronto-parietal cortex), Baseline (Wistar rats [1]) | EEG total power (fronto-parietal cortex), 15′ (Wistar rats [1]) | EEG total power (fronto-parietal cortex), 30′ (Wistar rats [1]) | EEG total power (fronto-parietal cortex), 45′ (Wistar rats [1]) | EEG total power (fronto-parietal cortex), 60′ (Wistar rats [1]) | EEG total power (fronto-parietal cortex), 75′ (Wistar rats [1]) | EEG total power (fronto-parietal cortex), 90′ (Wistar rats [1]) | Behaviour (Wistar rats [2]; 5 mg) | EEG Activity (change of EEG total power) (Wistar rats [2]; 5 mg) | Behaviour (Wistar rats [2]; 50 mg) | EEG Activity (change of EEG total power) (Wistar rats [2]; 50 mg) | EEG power (qEEG of neocortical activity), 15″ (rats) [μV/s] | EEG power (qEEG of neocortical activity), 30″ (rats) [μV/s] | other results
C[N+](C)(C)CCOP(=O)(O)OP(=O)([O-])OC[C@H]1O[C@@H](n2ccc(N)nc2=O)[C@H](O)[C@@H]1O [CDP-choline, cytidine-5′-diphosphocholine, reference compound] | 60 | 3.8 ± 1.3(*) % | 19.2 ± 1.5(*) % | 31.5 ± 0.9 | 18.5 ± 1.7 | 20.5 ± 1.3% | antagonize the effects | 98 ± 3.6 | 93 ± 2.9 | 271 ± 3.2 | 89 ± 2.9 | 65 ± 2(*) | 95 ± 3.3 | 103 ± 2.6 | Alert response | Decrease | Sedation | No effects |  |  | Behaviour (Wistar rats [2]; 1 mg): No effects; EEG Activity (change of EEG total power) (Wistar rats [2]; 1 mg): No effects; Behaviour (Wistar rats [2]; 25 mg): Sedation; EEG Activity (change of EEG total power) (Wistar rats [2]; 25 mg): Increase
C[N+]1(C)CCOC(O)(c2ccc(-c3ccc(C4(O)C[N+](C)(C)CCO4)cc3)cc2)C1.[Br-].[Br-] (centres unmarked) [Hch3, Hemicholinium-3, reference compound] |  |  |  |  |  |  |  |  |  |  |  |  |  |  |  |  |  |  |  |  | Behavioural and EEG effect of ICV administration [3]: behavioural sedation and sleep, EEG synchronization and increase in EEG total power
Nc1c2c(nc3ccccc13)CCCC2 [THA, tacrine, reference compound] |  |  |  |  |  |  |  |  |  |  |  |  |  |  |  |  |  |  | 72.5 | 68 | EEG power (qEEG of neocortical activity), 45″ (rats): 75.5 μV/s; EEG power (qEEG of neocortical activity), 60″ (rats): 97.5 μV/s; EEG power (qEEG of neocortical activity), 75″ (rats): 122 μV/s; EEG power (qEEG of neocortical activity), 90″ (rats): 129.5 μV/s; EEG power (qEEG of neocortical activity), 105″ (rats): 135 μV/s; EEG power (qEEG of neocortical activity), 120″ (rats): 137 μV/s; EEG power (qEEG of neocortical activity), 135″ (rats): 119.5 μV/s; EEG power (qEEG of neocortical activity), Baseline (rats; rats): 118 μV/s
pivaloylcholine trimethylacetate [PC-2] | ≤ 15 | 2.4 ± 1.3(**) % | 21.3 ± 0.9% | 22.3 ± 1.3 | 13.5 ± 0.7 | 22.5 ± 1.6(*) % | antagonize the effects | 93 ± 3.5 | 50 ± 1.9(**) | 55 ± 2.5(*) | 90 ± 3.3 | 132 ± 1.5(*) | 96 ± 2.7 | 90 ± 3.6 | Alert response | Decrease | Convulsions and death (50%) | Peaks | 58.5 | 64.5 | Change of slow EEG spectrum components (FIG. 3) (Wistar rats [1]): decrease in slow components (delta and theta) of the spectrum; Duration of the decrease in EEG total power (Wistar rats [1]; 5 mg i.p.): about 30 min; EEG 60 min after administration (Wistar rats [1]; 5 mg i.p., 60 min): rapid frequency activity (about 16 Hz) and significant increase (P<0.01) in EcoG total power; EEG power (qEEG of neocortical activity), 45″ (rats): 98 μV/s; EEG power (qEEG of neocortical activity), 60″ (rats): 103 μV/s; EEG power (qEEG of neocortical activity), 75″ (rats): 97.5 μV/s; EEG power (qEEG of neocortical activity), 90″ (rats): 110.3 μV/s; EEG power (qEEG of neocortical activity), 105″ (rats): 124 μV/s; EEG power (qEEG of neocortical activity), 120″ (rats): 120.5 μV/s; EEG power (qEEG of neocortical activity), 135″ (rats): 117.5 μV/s; EEG effect with tacrine given 30 min before (rats; rats, THA 5 mg/Kg i.p. 30 min before 15 μmol i.p.): long-lasting EEG desynchronization and significant decrease in EEG spectrum total power; EEG power (qEEG of neocortical activity), Baseline (rats; rats): 105 μV/s
